Publication PMC4595804, “A strategy to discover decoy chemokine ligands with an anti-inflammatory activity” (Scientific Reports, 2015)
Where two headings read alike, the source gives them in different places.

Columns and labels:
Type in all cases: cell-based
CCL17 = biological target: T1, CCL17 (Homo sapiens, UniProt Q92583); test: TRIC-r calcium assay, neutraligand protocol: compound preincubated with CCL17, EGFP-CCR4+Gqi5+ HEK cells
T1 construct: codes for the mature CCL17 or CCL22 with an N-terminal thioredoxin-hexahistidin (TRX- (His)6) tag; thioredoxin (TRX) (N, cleaved yes); (His)6 (N, cleaved yes); made in house; host or cells: E. coli BL21 (DE3)
T1 sequence (Q92583 24-94): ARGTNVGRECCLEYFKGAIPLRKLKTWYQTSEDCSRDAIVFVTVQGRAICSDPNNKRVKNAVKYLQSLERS
Procedure: EGFP-CCR4^+Gqi5^+HEKcells were loaded with fluorescent Ca^2+-indicator Indo-1 AM (5μM, Interchim) for 45 min at 37 °C. […] Cells (100,000 cells/well, 100μl) were seeded in black clear bottom 96-well plates (Greiner), and centrifuged at 250 × g for 5 min.
Two plates (96-well plates, Greiner) were prepared for the screen: one containing test compounds alone in order to determine their direct agonistic activity, and another one containing test compounds mixed with CCL17 or CCL22 at room temperature for 1 h (neutraligand protocol). The chemokines and test compounds were prepared at a 3× concentration, while digitonin was prepared at a 4× concentration. The CCR4 antagonist, C-021 served as control in the experiment. In the antagonist protocol, compounds were added to the cell plate (one compound per well) and incubated with cells for 30 min at room temperature, while the agonist (CCL17 or CCL22) was added to the ligand plate only.
(§1) Dye loaded cells were placed in the FlexStation 3 (Molecular Devices). […] For the primary screening, the ligands (50μl of chemokine mixed with DMSO or test compounds) were added to the cells at 40 s, followed by digitonin addition (50μl) at 100 s to the cells. Molecules were screened at a final concentration of 2μg/ml with 5 nM CCL17 or CCL22. […] The calcium response values (height of peak response over baseline) were determined. Hits were selected by comparing the response amplitude at the time of the chemokine addition ± test compound. The Z’ factor[29] was calculated according to the following equation: Z’ = 1-(3SD+ + 3SD−)/|Ave+ − Ave−|, where SD+ and Ave+ are respectively the standard deviation and the mean value of the positive controls (chemokine + DMSO), while SD− and Ave− are respectively the standard deviation and the mean value of the negative controls (HEPES-BSA (0.1%) mixed with DMSO, or cells mixed with C-021). Hit molecules were confirmed by performing concentration-response curves and their half maximal inhibitory concentration (IC50) values were calculated using the Kaleidagraph software.

human monocytes = test: Cytotoxicity in primary monocytes (Alamar Blue); conditions: up to 250 μM, 24 h
Procedure: the wound closure was determined as the difference between wound width at times 0 and 72h. This experiment was repeated three times.
Human primary monocytes were isolated from buffy coats of healthy human blood donors and seeded in 24-well plates (500,000 cells/ml in 1ml) for COX-1/2 activity or 96-well plates for cell viability experiments.
Cells were seeded in 96 well plates (5,000 cells/well in 200µl) for cytotoxicity testing (Alamar […]
doses). After 24h, cytotoxicity was evaluated in the wells using the Alamar Blue method. NaF (250µg/ml) was used as a control in this experiment.
Cyclooxygenase (COX) activity
COX1 mediated prostaglandin E2 (PGE2) release. Monocytes were treated with arachidonic […]
were then collected for the determination of PGE2 by enzyme immunoassay (EIA) […]
COX2 mediated prostaglandin E2 (PGE2) release. Monocytes were incubated with LPS (10U/ml) for 24h to induce COX2 protein synthesis. After renewal of medium (serum free), […]
before AA treatment. The activity of COX2 was determined by measuring PGE2 (Cayman) in the supernatants by EIA. Aspirin (10µM) and diclofenac (10µM) were used as control

CCL17 N78V = biological target: T2, CCL17 N78V (Homo sapiens, UniProt Q92583, N78V); test: Calcium responses induced by chemokine mutant, neutraligand protocol; conditions: 10 μM compound, 5 nM chemokine; remaining response
T2 construct: codes for the mature CCL17 or CCL22 with an N-terminal thioredoxin-hexahistidin (TRX- (His)6) tag; TRX-(His)6 (N, cleaved yes); made in house; host or cells: E. coli BL21 (DE3)
T2 sequence (Q92583 24-94 N78V): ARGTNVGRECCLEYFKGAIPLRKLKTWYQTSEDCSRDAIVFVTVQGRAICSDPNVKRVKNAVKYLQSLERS
Procedure: as §1
(§2) and the denaturated chemokines (disulfite bonds reduced by β-mercaptoethanol). The
(§3) chemokine activity was then, tested in the in vitro assays.
(§4) On-column refolding and purification of CCL5, CXCL8, CXCL10, CXCL11, CXCL12, CCL17
(§5) performed in a similar fashion as for CCL17 and CCL22. […]

CCL17 R80W = biological target: T3, CCL17 R80W (Homo sapiens, UniProt Q92583, R80W); test: as above; conditions: 10 μM compound, 5 nM chemokine; remaining response
T3 construct: codes for the mature CCL17 or CCL22 with an N-terminal thioredoxin-hexahistidin (TRX- (His)6) tag; TRX-(His)6 (N, cleaved yes); made in house; host or cells: E. coli BL21 (DE3)
T3 sequence (Q92583 24-94 R80W): as the sequence (Q92583 24-94 N78V) above, with V55N, R57W counted along it
Procedure: as §1, §2, §3, §4, §5

CCL17 S74A = biological target: T4, CCL17 S74A (Homo sapiens, UniProt Q92583, S74A); test: as above; conditions: 10 μM compound, 5 nM chemokine; remaining response
T4 construct: codes for the mature CCL17 or CCL22 with an N-terminal thioredoxin-hexahistidin (TRX- (His)6) tag; TRX-(His)6 (N, cleaved yes); made in house; host or cells: E. coli BL21 (DE3)
T4 sequence (Q92583 24-94 S74A): as the sequence (Q92583 24-94 N78V) above, with S51A, V55N counted along it
Procedure: as §1, §2, §3, §4, §5

CCL22 T56A = biological target: T5, CCL22 T56A (Homo sapiens, UniProt O00626, T56A); test: as above; conditions: 10 μM compound, 5 nM chemokine; remaining response
T5 construct: codes for the mature CCL17 or CCL22 with an N-terminal thioredoxin-hexahistidin (TRX- (His)6) tag; TRX-(His)6 (N, cleaved yes); made in house; host or cells: E. coli BL21 (DE3)
T5 sequence (O00626 25-93 T56A): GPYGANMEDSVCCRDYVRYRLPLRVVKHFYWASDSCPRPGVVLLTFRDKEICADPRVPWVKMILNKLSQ

CCR4 = biological target: T6, CCR4 (Homo sapiens, UniProt P51679); test: EGFP-CCR4 receptor surface level / endocytosis on EGFP-CCR4+ HEK cells; conditions: without chemokine, data not shown
T6 construct: signal peptide fused to EGFP (N); expressed in transfected cells; host or cells: HEK-293
T6 sequence (P51679 1-360): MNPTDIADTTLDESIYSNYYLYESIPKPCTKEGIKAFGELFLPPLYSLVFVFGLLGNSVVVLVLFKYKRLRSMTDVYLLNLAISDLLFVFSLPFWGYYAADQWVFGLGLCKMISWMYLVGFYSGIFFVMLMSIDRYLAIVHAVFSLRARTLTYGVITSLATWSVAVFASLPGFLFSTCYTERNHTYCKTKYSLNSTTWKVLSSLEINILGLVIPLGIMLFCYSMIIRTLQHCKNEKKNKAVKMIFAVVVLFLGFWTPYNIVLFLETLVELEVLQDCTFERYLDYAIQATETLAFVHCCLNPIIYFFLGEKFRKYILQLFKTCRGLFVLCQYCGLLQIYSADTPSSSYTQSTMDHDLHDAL
Procedure: CCR4 levels were evaluated by flow cytometry (FACSCalibur, BD biosciences) using cell surface labeling of EGFP with monoclonal mouse anti-GFP (Roche Applied Science; 1:100 dilution) as primary antibody and R-phycoerythrin conjugated AffiniPure F (ab’)2 fragment goat anti-mouse (Immunotech; 1/100) as secondary antibody.

| inhibition of CCL17-evoked calcium responses (selectivity) (CCL17; 10 μM compound, 5 nM CCL17, EGFP-CCR4+ HEK cells) | inhibition at 5 µM (CCL17; HEK293, compound 5 µM, read-out: Inhibition of CCL17 calcium responses (%)) [%] | Compound | cell toxicity on human monocytes (Alamar Blue) (human monocytes) | calcium response induced by CCL17 N78V preincubated with compound (CCL17 N78V) | calcium response induced by CCL17 R80W preincubated with compound (CCL17 R80W) | calcium response induced by CCL17 S74A preincubated with compound (CCL17 S74A) | calcium response induced by CCL22 T56A preincubated with compound (CCL22 T56A) | effect on CCR4 receptor surface level on its own (CCR4) | calcium response induced by WT CCL17 preincubated with compound (CCL17; 10 μM compound, 5 nM chemokine, remaining response) [%] | inhibition at 5 µM (CCL17; HEK293, read-out: Inhibition of CCL17 calcium responses (%)) [%] | inhibition at 10 µM (CCL17; HEK293, read-out: inhibition of CCL17-evoked calcium responses (selectivity)) [%] | inhibition at 2 µg/mL (CCL17; HEK293, read-out: inhibition of CCL17-induced calcium responses (primary screen)) [%] |
| --- | --- | --- | --- | --- | --- | --- | --- | --- | --- | --- | --- | --- |
| no effect | 0 | O=C(OCC(O)CO)c1ccccc1O (stereo not drawn) [GPN136, 2,3-dihydroxypropyl 2-hydroxybenzoate] | absence of cell toxicity | totally ineffective | totally ineffective | totally ineffective | 40.0 ± 6.0% | Neither GPN279 nor GPN136 did alter |  |  |  |  |
|  |  | CC(C)=CCn1cnc2c1c(=O)n(C)c(=O)n2C [GPN279, 1,3-dimethyl-7-(3-methylbut-2-enyl)-1H-purine-2,6(3H, 7H)-dione] | absence of cell toxicity | 75.0 ± 6.0% | 50.0 ± 11.0% | no longer acted as a neutralizing molecule | neither inhibited WT nor CCL22 mutants | Neither GPN279 nor GPN136 did alter | 56.0 ± 5.0 | 42 ± 4 | 40 | 42 |
